According to patent US9731001B2, “Three-dimensional cavities of dendritic cell immunoreceptor (DCIR), compounds binding thereto and therapeutic applications related to inhibition of human immunodeficiency virus type-1 (HIV-1)” (priority 2011, dated 2017):

Assays:
Assay type in all cases: cell-based
[1] = biological target: T1, DCIR (Homo sapiens, UniProt Q9UMR7); assay: HIV-1 binding/entry assay on Raji-CD4-DCIR cells (cell-associated p24); conditions: 10 μM pre-treatment 10 min; NL4-3 60 min; p24 content
T1 construct: expressed in transfected cells; host or cells: Raji-CD4 (human B cell line stably expressing human CD4), retroviral transduction
T1 sequence (Q9UMR7 1-237): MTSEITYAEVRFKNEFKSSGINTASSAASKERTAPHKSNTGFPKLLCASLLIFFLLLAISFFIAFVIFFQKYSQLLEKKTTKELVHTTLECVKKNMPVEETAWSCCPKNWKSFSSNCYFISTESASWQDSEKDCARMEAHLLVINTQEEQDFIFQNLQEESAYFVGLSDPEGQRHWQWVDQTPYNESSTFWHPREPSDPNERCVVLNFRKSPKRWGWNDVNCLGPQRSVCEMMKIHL
Protocol: FIG. 4 is a bar graph showing that inhibitors decrease HIV-1 binding on DCIR. Raji-CD4-DCIR cells were treated with 10 μM of four site A inhibitors (A1, A2, A3 and A4) and three site B inhibitors (B1, B2 and B3) (or with vehicle (DMSO) only) for 10 min at 37° C. Thereafter, cells were pulsed with NL4-3 for 60 min. After three washes with PBS to remove unadsorbed virus, the abundance of cell-associated viruses was quantified by measuring p24 content. Data shown correspond to the means±SEM of three independent experiments performed with triplicate samples. The asterisk (*) denotes statistically significant data (*, P<0.05, ** P<0.01, *** P<0.001).
(§1) Where indicated, 1×10^6 parental Raji-CD4 cells (DCIR-negative), Raji-CD4-DCIR or Raji-DC-SIGN transfectants were pre-treated with the indicated amount of a chemical inhibitor for 10 min. Cells were then pulsed with NL4-3 (an equivalent of 100 ng of p24) for 60 min at 37° C. The virus-cell mixture was then washed three times with PBS to remove unbound virus and re-suspended in PBS containing 1% BSA. Binding/entry was then determined by the p24 content by ELISA as above. For the infection assay, Raji-CD4 and Raji-CD4-DCIR (1×10^6 cells) were exposed to NL4-3 viral stock (100 ng of p24) for 2 h at 37° C. After three washes with PBS to remove excess virus, cells were maintained in culture for up to 9 days. Cell-free culture supernatants were collected at the indicated time points and assayed for p24 content.

[2] = tested on: HIV-1 (NL4-3); assay: HIV-1 infection assay on Raji-CD4 and Raji-CD4-DCIR cells (p24 in supernatant); conditions: Raji-CD4 vs Raji-CD4-DCIR, NL4-3 2 h, culture 3 d
Protocol: FIG. 5 is a bar graph showing that specific inhibitors against the site A (A1, A4) and site B (B1, B2) decrease infectivity of Raji-CD4-DCIR. Raji-CD4 and Raji-CD4-DCIR were treated with the inhibitors selected following experiments described in FIG. 4, or DMSO. Cells were then exposed to NL4-3 for 2 h, rinsed and maintained in culture for 3d. Cell-free culture supernatants were collected and assayed for p24 content. Data shown correspond to the means±SEM from 3 independent experiments performed with triplicate samples. The asterisk (*) denotes statistically significant data (*, P<0.05, ** P<0.01, *** P<0.001).
as §1

[3] = biological target: T2, DC-SIGN (Homo sapiens, UniProt Q9NNX6); assay: HIV-1 binding to Raji-DC-SIGN cells (p24); conditions: NL4-3 60 min
T2 construct: expressed in transfected cells; host or cells: Raji cells stably transfected with a DC-SIGN plasmid
T2 sequence (Q9NNX6 1-404): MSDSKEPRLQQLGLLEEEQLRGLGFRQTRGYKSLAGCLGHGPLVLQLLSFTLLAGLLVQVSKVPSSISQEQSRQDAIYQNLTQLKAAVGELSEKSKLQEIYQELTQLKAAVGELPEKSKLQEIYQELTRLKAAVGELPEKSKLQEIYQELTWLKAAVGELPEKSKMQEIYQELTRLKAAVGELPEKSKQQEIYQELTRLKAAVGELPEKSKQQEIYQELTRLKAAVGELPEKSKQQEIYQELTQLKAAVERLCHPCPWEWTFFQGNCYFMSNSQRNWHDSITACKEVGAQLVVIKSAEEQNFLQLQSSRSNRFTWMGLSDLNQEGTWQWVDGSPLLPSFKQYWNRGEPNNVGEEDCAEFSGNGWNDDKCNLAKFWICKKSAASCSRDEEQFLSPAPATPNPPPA
Protocol: Raji-DC-SIGN cells were treated for 10 min at 37° C. with inhibitors A1 and A4 directed against the site A and B1 and B2 directed against the site B, or with DMSO. Afterwards, cells were pulsed with NL4-3 for 60 min, rinsed thrice with PBS were made to remove unadsorbed virus, and cell-associated viruses were quantified by measuring p24 content. Data shown correspond to the means±SEM of 3 independent experiments performed in triplicate.
as §1

[4] = tested on: HIV-1 (NL4-3/Balenv); assay: HIV-1 binding assay on iMDDCs (p24); conditions: IM-MDDCs, 10 μM pre-incubation 10 min, NL4-3balenv 60 min
Protocol: (§2) FIG. 7 is bar graphs showing that selected site A and site B inhibitors decrease HIV-1 binding and infection of IM-MDDCs. Upper panel: IM-MDDCs were treated with two chemical inhibitors directed against site A (A1 and A4) and two inhibitors directed against site B (B1 and B2) (or DMSO) for 10 min at 37° C. Next, cells were pulsed with NL4-3balenv for 60 min at 37° C. and rinsed extensively before measuring p24 content. Lower panel: In some experiments, similarly treated IM-MDDCs were pulsed with NL4-3balenv for 2 h at 37° C., rinsed extensively, and maintained in complete culture medium supplemented with GM-CSF and IL-4 for up to 9 days with medium replenishment every 3 days. Cell-free culture supernatants were quantified by measuring p24 content. Data shown correspond to the means±SEM of 3 independent experiments performed in triplicate. The asterisks denotes statistically significant data (*, P<0.05; **, P<0.01; ***, P<0.001).
(§3) For assessing binding/entry, iMDDCs (3×10^5 cells in a final volume of 300 μl) were pre-treated with 10 μM of different chemical inhibitors for 10 min and exposed to NL4-3/Balenv (30 ng of p24) for 60 min at 37° C. After three washes with PBS, cells were re-suspended in PBS containing 1% BSA. The p24 content was determined by ELISA, while susceptibility of iMDDCs to HIV-1 infection was assessed by initially exposing 3×10^5 cells to NL4-3/Balenv (30 ng) at 37° C. for 2 h. After three washes with PBS, cells were maintained in complete RPMI 1640 supplemented with GM-CSF and IL-4 in 96-well plates, in a final volume of 200 μl. Every 3 days and for a 9-day period, half of the conditioned medium was collected and kept at −20° C. until assayed. Virus production was estimated as above by measuring p24 levels by ELISA.

[5] = tested on: HIV-1 (NL4-3/Balenv); assay: HIV-1 infection assay on iMDDCs (p24 in supernatant); conditions: IM-MDDCs, NL4-3balenv 2 h, culture up to 9 days
Protocol: as §2, §3

In the case of `c1ccc(-c2ccc(-c3ccccn3)nn2)nc1` [Compound A4, 3,6-di-2 pyridinylpyridazine], the “HIV-1 attachment to Raji-CD4-DCIR cells” value [1] is reported as “statistically significant decrease”, the HIV-1 production [2] is reported as “decreased HIV-1 production only in DCIR-expressing cells” and the “HIV-1 binding to DC-SIGN” value [3] is reported as “do not block HIV-1 attachment to DC-SIGN”. For the same compound, the “HIV-1 binding to DCs” value [4] was “decreased significantly” and the “productive infection of DCs” value [5] was “blocked productive infection”.
